From patent US11685746B2, “Heteroaryl compounds for treating Huntington's disease” (PTC THERAPEUTICS, INC., priority 2018, dated 2023) come the findings set out here.

The experiment concerns Endogenous Huntingtin Protein. As to the kind of experiment: Endogenous Huntingtin Protein Assay (MSD plates, MW1 or MAB2166 capture antibody). The format is cell-based. As to conditions: Table 1. As to the method:
Endogenous Huntingtin Protein Assay
Meso Scale Discovery (MSD) 96-well or 384-well plates were coated overnight at 4° C. with MW1 (expanded polyglutamine) or MAB2166 monoclonal antibody (for capture) at a concentration of 1 μg/mL in PBS (30 μL per well). Plates were then washed three times with 300 μL wash buffer (0.05% Tween-20 in PBS) and blocked (100 μL blocking buffer; 5% BSA in PBS) for 4-5 hours at room temperature with rotational shaking and then washed three times with wash buffer.
Samples (25 μL) were transferred to the antibody-coated MSD plate and incubated overnight at 4° C. After removal of the lysates, the plate was washed three times with wash buffer, and 25 μL of #5656S (Cell signaling; rabbit monoclonal) secondary antibody (diluted to 0.25 μg/mL in 0.05% Tween-20 in blocking buffer) was added to each well and incubated with shaking for 1 Hour at room temperature. Following incubation with the secondary antibody, the wells were rinsed with wash buffer after which 25 μL of goat anti-rabbit SULFO TAG secondary detection antibody (required aspect of the MSD system) (diluted to 0.25 μg/mL in 0.05% Tween-20 in blocking buffer) was added to each well and incubated with shaking for 1 hour at room temperature. After rinsing three times with wash buffer, 150 μL of read buffer T with surfactant (MSD) were added to each empty well, and the plate was imaged on a SI 6000 imager (MSD) according to manufacturers' instructions provided for 96- or 384-well plates.

SMILES strings stand for the structures.

For orientation: IC50 means the concentration at which inhibition is half-maximal. `COc1cc(-c2nc3sc(C4CCNCC4)nc3s2)cc2cn(C)nc12` [Compound 26, 7-methoxy-2-methyl-5-[5-(piperidin-4-yl)[1,3]thiazolo[5,4-d][1,3]thiazol-2-yl]-2H-indazole] yielded an IC50 of at most 100 nM.

As for `Cn1cc2cc(-c3nn4cc(C5CCNCC5)nc4s3)cc(C#N)c2n1` [Compound 27, 2-methyl-5-[6-(piperidin-4-yl)imidazo[2,1-b][1,3,4]thiadiazol-2-yl]-2H-indazole-7-carbonitrile], the IC50 is at most 100 nM.

In turn, `Cn1cc2cc(-c3nn4cc(C5CCNCC5)nc4s3)cc(F)c2n1` [Compound 28, 7-fluoro-2-methyl-5-[6-(piperidin-4-yl)imidazo[2,1-b][1,3,4]thiadiazol-2-yl]-2H-indazole] registered an IC50 of at most 100 nM.

In turn, `Cc1cn2cc(-c3nn4cc(C5CCNCC5)nc4s3)cc(C#N)c2n1` [Compound 29, 2-methyl-6-[6-(piperidin-4-yl)imidazo[2,1-b][1,3,4]thiadiazol-2-yl]imidazo[1,2-a]pyridine-8-carbonitrile] had an IC50 of 100 to 500 nM.

Consider `Cc1cn2cc(-c3nn4cc(C5CCNCC5)nc4s3)cc(F)c2n1` [Compound 30, 8-fluoro-2-methyl-6-[6-(piperidin-4-yl)imidazo[2,1-b][1,3,4]thiadiazol-2-yl]imidazo[1,2-a]pyridine], for which the IC50 was 100 to 500 nM.

As to `CN1CCC(N(C)c2nn3cc(-c4cc(C#N)c5nn(C)cc5c4)nc3s2)CC1` [Compound 31, 2-methyl-5-{2-[methyl(1-methylpiperidin-4-yl)amino]imidazo[2,1-b][1,3,4]thiadiazol-6-yl}-2H-indazole-7-carbonitrile], the IC50 lay in the range of 3000 to 9000 nM.

The compound `Cn1cc2cc(-c3cn4nc(C5CCNCC5)sc4n3)cc(C#N)c2n1` [Compound 32, 2-methyl-5-[2-(piperidin-4-yl)imidazo[2,1-b][1,3,4]thiadiazol-6-yl]-2H-indazole-7-carbonitrile] yielded an IC50 of 100 to 500 nM.

The compound `Cn1cc2cc(-c3cn4nc(C5=CC6CCC(C5)N6)sc4n3)cc(C#N)c2n1` (stereo not drawn) [Compound 33, 5-[2-(8-azabicyclo[3.2.1]oct-2-en-3-yl)imidazo[2,1-b][1,3,4]thiadiazol-6-yl]-2-methyl-2H-indazole-7-carbonitrile] returned an IC50 of 1000 to 3000 nM.

As for `C[C@@H]1C[C@@H](N(C)c2nc3sc(-c4ccc(-c5cn[nH]c5)cc4O)nc3s2)C[C@H](C)N1` [Compound 34, 2-(5-{[(2R,4s,6S)-2,6-dimethylpiperidin-4-yl](methyl)amino}[1,3]thiazolo[5,4-d][1,3]thiazol-2-yl)-5-(1H-pyrazol-4-yl)phenol], the IC50 is at most 100 nM.

In turn, `CN(c1nc2sc(-c3ccc(-c4ccnc(O)c4)cc3O)nc2s1)C1CCNCC1` [Compound 35, 4-(3-hydroxy-4-{5-[methyl(piperidin-4-yl)amino][1,3]thiazolo[5,4-d][1,3]thiazol-2-yl}phenyl)pyridin-2-ol] displayed an IC50 of 3000 to 9000 nM.

The compound `CN(c1nc2sc(-c3ccc(-c4ccn(C)c(=O)c4)cc3O)nc2s1)C1CCNCC1` [Compound 36, 4-(3-hydroxy-4-{5-[methyl(piperidin-4-yl)amino][1,3]thiazolo[5,4-d][1,3]thiazol-2-yl}phenyl)-1-methylpyridin-2(1H)-one] registered an IC50 of 100 to 500 nM.

Turning to `CC1(C)CC(Oc2nc3sc(-c4ccc(-c5cn[nH]c5)cc4O)nc3s2)CC(C)(C)N1` [Compound 37, 5-(1H-pyrazol-4-yl)-2-{5-[(2,2,6,6-tetramethylpiperidin-4-yl)oxy][1,3]thiazolo[5,4-d][1,3]thiazol-2-yl}phenol], the IC50 is at most 100 nM.

In turn, `Cn1ccc(-c2ccc(-c3nc4sc(OC5CC(C)(C)NC(C)(C)C5)nc4s3)c(O)c2)cc1=O` [Compound 38, 4-(3-hydroxy-4-{5-[(2,2,6,6-tetramethylpiperidin-4-yl)oxy][1,3]thiazolo[5,4-d][1,3]thiazol-2-yl}phenyl)-1-methylpyridin-2(1H)-one] displayed an IC50 of 100 to 500 nM.

`[2H]C([2H])([2H])n1cc(-c2ccc(-c3nc4sc(N(C)C5CCNCC5)nc4s3)c(O)c2)cn1` [Compound 39, 2-{5-[methyl(piperidin-4-yl)amino][1,3]thiazolo[5,4-d][1,3]thiazol-2-yl}-5-[1-(^2H3)methyl-1H-pyrazol-4-yl]phenol] displayed an IC50 of at most 100 nM.

The compound `CN(c1nc2sc(-c3ccc(-c4cnn(C)c4)cc3O)nc2s1)C1CCNCC1` [Compound 40, 2-{5-[methyl(piperidin-4-yl)amino][1,3]thiazolo[5,4-d][1,3]thiazol-2-yl}-5-(1-methyl-1H-pyrazol-4-yl)phenol] gave an IC50 of at most 100 nM.

The compound `Cc1cn2cc(-c3nc4sc(C5=CCNCC5)nc4s3)nc2c(C)n1` [Compound 41, 6,8-dimethyl-2-[5-(1,2,3,6-tetrahydropyridin-4-yl)[1,3]thiazolo[5,4-d][1,3]thiazol-2-yl]imidazo[1,2-a]pyrazine] registered an IC50 of 100 to 500 nM.

`CN(c1nc2sc(-c3ncc(-c4cn[nH]c4)cc3O)nc2s1)C1CC(C)(C)NC(C)(C)C1` [Compound 42, 2-{5-[methyl(2,2,6,6-tetramethylpiperidin-4-yl)amino][1,3]thiazolo[5,4-d][1,3]thiazol-2-yl}-5-(1H-pyrazol-4-yl)pyridin-3-ol]: the IC50 is at most 100 nM.

`CN(c1nc2sc(-c3ccc(-c4cn[nH]c4F)cc3O)nc2s1)C1CC(C)(C)NC(C)(C)C1` [Compound 43, 5-(5-fluoro-1H-pyrazol-4-yl)-2-{5-[methyl(2,2,6,6-tetramethylpiperidin-4-yl)amino][1,3]thiazolo[5,4-d][1,3]thiazol-2-yl}phenol]: the half-inhibitory concentration (IC50) is at most 100 nM.

The compound `Cc1cn2cc(-c3nc4sc(C5CCNCC5)nc4s3)nc2c(C)n1` [Compound 44, 6,8-dimethyl-2-[5-(piperidin-4-yl)[1,3]thiazolo[5,4-d][1,3]thiazol-2-yl]imidazo[1,2-a]pyrazine] gave an IC50 of 1000 to 3000 nM.

Regarding `Cn1ncc(-c2ccc(-c3nc4sc(OC5CC(C)(C)NC(C)(C)C5)nc4s3)c(O)c2)c1F` [Compound 45, 5-(5-fluoro-1-methyl-1H-pyrazol-4-yl)-2-{5-[(2,2,6,6-tetramethylpiperidin-4-yl)oxy][1,3]thiazolo[5,4-d][1,3]thiazol-2-yl}phenol], the IC50 was at most 100 nM.

Turning to `CN(c1nc2sc(-c3ccc(-c4ccn(C)c(=O)c4)cc3O)nc2s1)C1CC(C)(C)NC(C)(C)C1` [Compound 46], the IC50 is at most 100 nM.

`CN(c1nc2sc(-c3ncc(-c4cn[nH]c4)cc3O)nc2s1)C1CCNCC1` [Compound 47, 2-{5-[methyl(piperidin-4-yl)amino][1,3]thiazolo[5,4-d][1,3]thiazol-2-yl}-5-(1H-pyrazol-4-yl)pyridin-3-ol] displayed an IC50 of at most 100 nM.

Consider `CN(c1nc2sc(-c3ccc(-c4cnn(C)c4F)cc3O)nc2s1)C1CC(C)(C)NC(C)(C)C1` [Compound 48, 5-(5-fluoro-1-methyl-1H-pyrazol-4-yl)-2-{5-[methyl(2,2,6,6-tetramethylpiperidin-4-yl)amino][1,3]thiazolo[5,4-d][1,3]thiazol-2-yl}phenol], for which the IC50 lay in the range of 100 to 500 nM.

Compound `[2H]C([2H])([2H])n1cc(-c2cnc(-c3nc4sc(N(C)C5CC(C)(C)NC(C)(C)C5)nc4s3)c(O)c2)cn1` [Compound 49, 5-[1-(^2H3)methyl-1H-pyrazol-4-yl]-2-{5-[methyl(2,2,6,6-tetramethylpiperidin-4-yl)amino][1,3]thiazolo[5,4-d][1,3]thiazol-2-yl}pyridin-3-ol] yielded an IC50 of at most 100 nM.

For the compound `CCn1cc(-c2cnc(-c3nc4sc(N(C)C5CC(C)(C)NC(C)(C)C5)nc4s3)c(O)c2)cn1` [Compound 50, 5-(1-ethyl-1H-pyrazol-4-yl)-2-{5-[methyl(2,2,6,6-tetramethylpiperidin-4-yl)amino][1,3]thiazolo[5,4-d][1,3]thiazol-2-yl}pyridin-3-ol], the IC50 was in the range of 100 to 500 nM.

With `[2H]C([2H])([2H])n1cc(-c2cnc(-c3nc4sc(N(C)C5CCNCC5)nc4s3)c(O)c2)cn1` [Compound 51, 2-{5-[methyl(piperidin-4-yl)amino][1,3]thiazolo[5,4-d][1,3]thiazol-2-yl}-5-[1-(^2H3)methyl-1H-pyrazol-4-yl]pyridin-3-ol], the IC50 was at most 100 nM.

In turn, `CCn1cc(-c2cnc(-c3nc4sc(N(C)C5CCNCC5)nc4s3)c(O)c2)cn1` [Compound 52, 5-(1-ethyl-1H-pyrazol-4-yl)-2-{5-[methyl(piperidin-4-yl)amino][1,3]thiazolo[5,4-d][1,3]thiazol-2-yl}pyridin-3-ol] displayed an IC50 of 1000 to 3000 nM.

Compound `CN(c1nc2sc(-c3ncc(-c4cn[nH]c4F)cc3O)nc2s1)C1CCNCC1` [Compound 53, 5-(5-fluoro-1H-pyrazol-4-yl)-2-{5-[methyl(piperidin-4-yl)amino][1,3]thiazolo[5,4-d][1,3]thiazol-2-yl}pyridin-3-ol] displayed an IC50 of at most 100 nM.

As to `CN(c1nc2sc(-c3ccc(-c4cn[nH]c4)cc3O)nc2s1)[C@H]1CCNC1` [Compound 54, 2-(5-{methyl[(3S)-pyrrolidin-3-yl]amino}[1,3]thiazolo[5,4-d][1,3]thiazol-2-yl)-5-(1H-pyrazol-4-yl)phenol], the IC50 was at most 100 nM.

Consider `CN(c1nc2sc(-c3ccc(-c4cn[nH]c4)cc3O)nc2s1)[C@@H]1CCNC1` [Compound 55, 2-(5-{methyl[(3R)-pyrrolidin-3-yl]amino}[1,3]thiazolo[5,4-d][1,3]thiazol-2-yl)-5-(1H-pyrazol-4-yl)phenol], for which the IC50 is at most 100 nM.
